Source: US20240374763A1, “DIAGNOSIS AND MONITORING USING EXTRADOMAIN-B FIBRONECTIN TARGETED PROBES” (Case Western Reserve University, priority 2020, published 2024)
One block for each molecule: values may come before it. No end group written: not given here.

Legend:
[1] = tested on: Capan-1 flank tumor xenografts; assay: MRMI of Capan-1 flank tumor xenografts; format: in vivo, mice; conditions: 0.1 mmol/kg; MT218 at 15 minutes post-injection, maintained at least 35 minutes; Gd(HP-DO3A) for the duration of the experiment
Method: (§1) For flank xenograft models, 4×10^6 Capan-1 cells suspended in 100 μL of a 6 mg/mL Matrigel (Corning, Corning, NY) solution was injected subcutaneously into the flank of eight-week-old female nu/nu mice. The tumor bearing mice were imaged after tumor volumes exceeded 300 mm^3. For orthotopic intrapancreatic models, the pancreas of four-week-old female nu/nu mice were surgically exposed and 1×10^6 BxPC3-GFP-Luc or PANC-1-GFP-Luc cells suspended in 100 μL of an Matrigel solution (6 mg/mL) was injected into the pancreatic tissue. Prior to imaging, growth of tumor was verified by bioluminescence imaging with intraperitoneal injection of d-luciferin on IVIS Spectrum system (Perkin Elmer, Waltham, MA).
Flank tumor-bearing mice were anesthetized and a tail vein catheter inserted. MR image acquisition was performed on a 7T Biospin (Bruker, Billerica, MA) preclinical small animal scanner with a volume radiofrequency coil. Axial images were obtained using a multi-spin multi-echo (MSME) MRI sequence (500 ms TR, 8.1 ms TE, 900 FA, 4.50 cm×4.50 cm FOV, 1.50 mm slice thickness, 16 slices, 2 averages, 200×200 matrix, 0.0225×0.0225 cm/pixel resolution). Contrast agents were injected at a dose of 0.1 mmol/kg (100 μL) via the tail vein catheter, followed by a saline flush. Images of the tumors were acquired before contrast and at various time points after contrast administration. Gd(HP-DO3A) was used as a control.
Image files were exported and analyzed in Horus software. ROIs were drawn in the tumor, liver, kidney, and muscle. Muscle ROIs were taken from muscle, with other structures (liver, kidney, tumor) identified after comparison with published images and comparison with anatomical landmarks or bioluminescent imaging. Size of ROIs drawn for image analysis are summarized in Supplemental Table S1. The contrast-to-noise ratio of the tumor (CNR) was calculated using the following equation, where σ_noise is the standard deviation of intensities from an ROI drawn outside of the mouse body: […]

SCC4 tumors = assay: MRMI of OSCC flank xenografts, SCC4; format: in vivo, mice; conditions: gadoteridol 0.10 mmol/kg
Method: (§2) Animal experiments were performed under an animal protocol approved by the Institutional Animal Care and Use Committee (IACUC) at Case Western Reserve University (CWRU, Cleveland, OH, USA). Female 4-week-old athymic nude mice purchased from the Jackson Laboratory (Bar Harbor, ME, USA) were housed in the Animal Core Facility at CWRU. Anesthetized mice were subcutaneously inoculated in the right flank with 4×10^6 GFP/luciferase-expressing OSCC cells (n=5 per cell line) in 100 μL of a 1:1 mixture of Matrigel HC (Corning) and DPBS. Tumor size was monitored with caliper measurements. After 4 weeks of growth, tumors were sufficiently large for MRI experiments.
MRI experiments were performed with a 3T MRS-3000 system (MR Solutions, Surrey, UK). […] This protocol was repeated on the same mice 2 days later using the untargeted clinical agent gadoteridol at the clinical dose of 0.10 mmol/kg.
(§3) Images were exported in DICOM format and analyzed using FIJI. Contrast-to-noise ratio (CNR) for each time point was calculated as the difference between the mean tumor intensity and the mean muscle intensity, divided by the standard deviation of noise.

Relaxivity measurements = format: physicochemical; conditions: at 3 T, DPBS buffer
Method: The T1 and T2 values of MT218 and Gd(HP-DO3A) solutions were determined using a 3T MRS 3000 scanner (MR Solutions, Guildford, UK). Solutions of MT218 were prepared at concentrations of 0, 0.25, 0.5, 1, and 2 mM in DPBS buffer (Gibco, Gaithersburg, MD). T1 values were measured using an inversion recovery-fast low angle shot (IR-FLASH) sequence (i=10 ms, TE=4 ms, FA=8°, echoes/frames=128, FOV=40 mm×40 mm, slice thickness =2 mm, number of averages=1, time delay=4000 ms, sample period=200, matrix=256×128). T2 values were obtained using a multi-echo multi-slice (MEMS) sequence (TE=15 ms, […], echoes=10, FOV: 40 mm×40 mm, slice thickness=1 mm, number of averages=1, matrix=256×192). The r1 and r2 relaxivities were calculated from the slopes of 1/T1 and 1/T2 vs. Gd concentration plots, respectively.

[2] = tested on: PANC-1-GFP-Luc intrapancreatic tumor xenografts; assay: MRMI of PANC-1-GFP-Luc intrapancreatic tumor xenografts; format: in vivo, mice; conditions: 0.1 mmol/kg, 10 min postinjection
Method: as §1
(§4) Mice bearing intrapancreatic tumors were anesthetized and a tail vein catheter was inserted. Image acquisition was performed on a MR Solutions 3T MRS 3000 scanner with a mouse radiofrequency coil. Axial images were obtained using a Fast Spin Echo (FSE) MRI sequence (305 ms TR, 11 ms TE, 90° F.A, 4 cm×4 cm FOV, 1 mm slice thickness, 10 slices, echo train length=4, echo spacing=11 ms, 4 averages, 256×256 matrix, […] cm/pixel resolution) with respiratory gating. Images were acquired before contrast and at different time points after contrast injection at a dose of 0.1 mmol/kg (100 μL). For competitive binding experiments, a 5:1 molar ratio of free ZD2 peptide to MT218 was injected in mice bearing intrapancreatic BxPC3 tumor xenografts (n=3) at a dose of 0.1 mmol MT218/kg (100 μL). Images obtained on the MR Solutions 3T scanner were normalized using the Surscalereader.exe (MR Solutions, Guildford, UK) program supplied.
Image files were exported and analyzed in Horus software. ROIs were drawn in the tumor, liver, kidney, and muscle. […] The contrast-to-noise ratio of the tumor (CNR) was calculated using the following equation, where σ_noise is the standard deviation of intensities from an ROI drawn outside of the mouse body: […]

HSC3 tumors = assay: MRMI of OSCC flank xenografts, HSC3; format: in vivo, mice; conditions: gadoteridol 0.10 mmol/kg
Method: as §2
MRI experiments were performed with a 3T MRS-3000 system (MR Solutions, Surrey, UK). Tumor-bearing mice were imaged before and at 10, 20, […] spin-echo axial sequence with respiratory gating (TR=305 ms, TE=11 ms, FOV=40×40 mm, slice thickness=1 mm, number of slices=15, Nav=2, matrix=256×248). This protocol was repeated on the same mice 2 days later using the untargeted clinical agent gadoteridol at the clinical dose of 0.10 mmol/kg.
as §3

CAL27 tumors = assay: MRMI of OSCC flank xenografts, CAL27; format: in vivo, mice; conditions: gadoteridol 0.10 mmol/kg
Method: as §2
MRI experiments were performed with a 3T MRS-3000 system (MR Solutions, Surrey, UK). Tumor-bearing mice were imaged before and at 10, 20, and 30 minutes post-injection of the targeted contrast agent, MT218 (Molecular Theranostics, LLC, Cleveland, OH, USA), at a dose of 0.04 mmol/kg using a T1-weighted fast spin-echo axial sequence with respiratory gating (TR=305 ms, TE=11 ms, FOV=40×40 mm, slice thickness=1 mm, number of slices=15, Nav=2, matrix=256×248). […]
as §3

[3] = tested on: BxPC3-GFP-Luc intrapancreatic tumors; assay: MRMI of BxPC3-GFP-Luc intrapancreatic tumors; format: in vivo, mice; conditions: 0.1 mmol/kg, 10 min post-injection
Method: as §1, §4
Image files were exported and analyzed in Horus software. ROIs were drawn in the tumor, liver, kidney, and muscle. Muscle ROIs were taken from muscle, with other structures (liver, kidney, tumor) identified after comparison with published images and comparison with anatomical landmarks or bioluminescent imaging. Size of ROIs drawn for image analysis are summarized in Supplemental Table S1. The contrast-to-noise ratio of the tumor (CNR) was calculated using the following equation, where σ_noise is the standard deviation of intensities from an ROI drawn outside of the mouse body:
Image contrast was reported as fold enhancement of contrast to noise ratio of postcontrast images over precontrast images using Fold Enhancement=CNRpost/CNRpre. Statistical analysis of CNR was performed in Minitab Express (Minitab Inc, State College, PA). One-way ANOVA with Fisher Individual Tests for Differences of Means post-hoc testing was performed to determine statistical significance between greater than two means (p<0.05). Student's T test was used to determine statistical significance between two means (p<0.05).

DLD-1 cells = conditions: cited from earlier work
DLD1-DR cells = DLD1-DR cells developed with resistance to 5′-FU; cited from earlier work
[4] = biological target: T1, EDB fragment of FN (expressed in E. coli, labelled with NT-647) (UniProt P02751 1266-1356, limits assumed, labelled with amine-reactive dye NT-647); assay: microscale thermophoresis, MT218 titrated against a fixed concentration of NT-647-labelled EDB fragment, 25 °C [panel B]
T1 construct: domain: EDB fragment of FN
Method: (§5) The binding affinity of MT218 was determined with microscale thermophoresis (MST) using a Nanotemper™ Monolith NT.115 instrument (NanoTemper Technologies, Munich, Germany). The EDB fragment of FN was expressed in E. coli, purified, and labelled with amine-reactive dye NT-647. MT218 was dissolved into assay buffer (50 mM PBS w/0.05% Tween-20). This solution was further diluted using assay buffer to give a series of MT218 working solutions. Each MT218 working solution was then mixed with a fixed concentration of fluorescently labeled EDB fragment. The mixtures of MT218 and EDB were then loaded into standard capillaries, and MST measurements were performed at 25° C. using 20-80% light-emitting diode power and 40% infrared-laser power at varying concentrations of MT218.

[5] = biological target: T1, EDB fragment of FN (expressed in E. …); assay: microscale thermophoresis, NT-647-labelled EDB fragment at fixed concentration, MT218 titrated, 25 °C
Method: as §5
MT218 is a small molecular conjugate of ZD2 peptide to a macrocyclic clinical MRI contrast agent Gd(HP-DO3A). […] The T₁ and T₂ relaxivities of MT218 were measured to be 6.07±1.13 s⁻¹ mM⁻¹ and 8.20±0.18 s⁻¹ mM⁻¹, respectively, at 3 T. T₁ and T₂ relaxivities of Gd(HP-DO3A) were measured to be 3.20±0.96 s⁻¹ mM⁻¹ and 5.12±0.18 s⁻¹ mM⁻¹, respectively, at 3 T.

[6] = biological target: extradomain-B fibronectin (EDB-FN) (human) (UniProt P02751); assay: cell-based or functional assay
Chain of extradomain-B fibronectin (EDB-FN) (human) (P02751 32-2477): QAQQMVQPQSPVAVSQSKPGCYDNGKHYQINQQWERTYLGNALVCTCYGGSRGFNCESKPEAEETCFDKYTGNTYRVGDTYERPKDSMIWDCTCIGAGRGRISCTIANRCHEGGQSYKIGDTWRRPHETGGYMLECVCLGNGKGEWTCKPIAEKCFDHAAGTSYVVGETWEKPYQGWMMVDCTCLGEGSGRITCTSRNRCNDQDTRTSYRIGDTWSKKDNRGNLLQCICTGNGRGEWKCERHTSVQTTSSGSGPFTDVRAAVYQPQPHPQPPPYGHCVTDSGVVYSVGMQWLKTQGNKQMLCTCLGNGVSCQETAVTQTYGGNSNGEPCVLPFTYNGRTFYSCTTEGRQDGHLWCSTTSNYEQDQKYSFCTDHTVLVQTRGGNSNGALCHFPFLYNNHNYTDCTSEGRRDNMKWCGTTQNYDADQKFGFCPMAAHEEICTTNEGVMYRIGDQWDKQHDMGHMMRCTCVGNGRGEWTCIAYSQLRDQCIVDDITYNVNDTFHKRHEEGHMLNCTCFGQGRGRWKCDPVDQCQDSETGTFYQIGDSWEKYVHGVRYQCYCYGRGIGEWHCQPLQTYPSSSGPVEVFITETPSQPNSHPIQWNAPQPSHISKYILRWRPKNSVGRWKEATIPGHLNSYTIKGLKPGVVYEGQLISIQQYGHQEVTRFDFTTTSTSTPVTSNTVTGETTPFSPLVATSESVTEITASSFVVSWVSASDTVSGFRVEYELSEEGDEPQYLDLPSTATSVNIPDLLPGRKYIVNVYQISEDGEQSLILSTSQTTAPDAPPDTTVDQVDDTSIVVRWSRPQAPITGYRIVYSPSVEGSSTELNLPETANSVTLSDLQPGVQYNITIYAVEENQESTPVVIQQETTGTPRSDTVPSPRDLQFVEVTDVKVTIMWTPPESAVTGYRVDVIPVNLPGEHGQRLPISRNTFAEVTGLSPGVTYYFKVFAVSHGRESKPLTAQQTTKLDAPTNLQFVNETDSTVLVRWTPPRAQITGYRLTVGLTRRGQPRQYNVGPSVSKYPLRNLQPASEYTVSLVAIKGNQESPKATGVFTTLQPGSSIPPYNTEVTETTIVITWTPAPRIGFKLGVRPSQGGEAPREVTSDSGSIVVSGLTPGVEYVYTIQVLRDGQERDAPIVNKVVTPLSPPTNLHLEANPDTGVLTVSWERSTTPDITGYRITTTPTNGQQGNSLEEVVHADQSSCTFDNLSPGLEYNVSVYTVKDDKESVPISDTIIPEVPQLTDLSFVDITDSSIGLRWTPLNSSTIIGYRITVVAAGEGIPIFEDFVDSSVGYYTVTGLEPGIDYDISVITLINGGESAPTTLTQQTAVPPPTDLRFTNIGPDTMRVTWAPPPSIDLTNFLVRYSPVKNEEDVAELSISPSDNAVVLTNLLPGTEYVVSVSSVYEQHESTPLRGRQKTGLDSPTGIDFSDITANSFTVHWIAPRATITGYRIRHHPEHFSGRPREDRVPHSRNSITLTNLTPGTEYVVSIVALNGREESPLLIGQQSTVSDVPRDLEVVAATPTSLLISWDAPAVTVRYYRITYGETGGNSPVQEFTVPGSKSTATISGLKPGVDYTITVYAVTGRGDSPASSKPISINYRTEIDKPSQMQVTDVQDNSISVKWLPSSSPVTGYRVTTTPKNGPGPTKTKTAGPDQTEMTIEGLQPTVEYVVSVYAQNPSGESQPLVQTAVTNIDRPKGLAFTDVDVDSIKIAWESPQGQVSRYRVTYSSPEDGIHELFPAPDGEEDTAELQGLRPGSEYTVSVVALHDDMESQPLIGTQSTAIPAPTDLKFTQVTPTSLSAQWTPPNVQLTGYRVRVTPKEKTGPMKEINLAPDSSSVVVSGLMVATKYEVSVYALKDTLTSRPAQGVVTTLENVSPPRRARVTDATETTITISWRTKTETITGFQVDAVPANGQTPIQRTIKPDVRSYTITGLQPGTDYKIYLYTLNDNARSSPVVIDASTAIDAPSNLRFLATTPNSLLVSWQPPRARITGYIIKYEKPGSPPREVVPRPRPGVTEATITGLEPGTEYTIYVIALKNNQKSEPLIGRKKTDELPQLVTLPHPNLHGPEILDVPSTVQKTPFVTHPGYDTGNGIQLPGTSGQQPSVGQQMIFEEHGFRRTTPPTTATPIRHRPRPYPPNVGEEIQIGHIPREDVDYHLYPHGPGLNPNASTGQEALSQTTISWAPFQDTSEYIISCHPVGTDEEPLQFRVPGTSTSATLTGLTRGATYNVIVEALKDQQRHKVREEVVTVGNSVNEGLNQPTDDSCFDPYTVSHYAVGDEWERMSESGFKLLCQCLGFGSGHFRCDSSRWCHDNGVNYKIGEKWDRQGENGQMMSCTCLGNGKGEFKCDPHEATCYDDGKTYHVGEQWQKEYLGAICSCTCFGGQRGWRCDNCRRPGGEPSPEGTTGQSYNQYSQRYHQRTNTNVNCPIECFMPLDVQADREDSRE

T1 sequence (P02751 1266-1356 limits assumed): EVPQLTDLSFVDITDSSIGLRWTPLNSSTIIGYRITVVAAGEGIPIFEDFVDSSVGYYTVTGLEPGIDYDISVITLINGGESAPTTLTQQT

- T1 relaxivity (Relaxivity measurements): 3.20 ± 0.96 s⁻¹ mM⁻¹
- T2 relaxivity (Relaxivity measurements): 5.12 ± 0.18 s⁻¹ mM⁻¹
Molecule: Gd(HP-DO3A) [gadoteridol, reference compound]
- increase of contrast to noise ratio (CNR) [1]: 1.77 fold
- average maximum enhancement (CNR) (SCC4 tumors): 2.57±0.28
- intratumoral CNR increase [2]: 2.35 fold
- average maximum enhancement (CNR) (HSC3 tumors): 2.18±0.07
- average maximum enhancement (CNR) (CAL27 tumors): 2.27±0.18
- tumor CNR increase [3]: approximately 2.5 fold

Molecule: O=c1[nH]cc(F)c(=O)[nH]1 [5′-FU, 5′-fluorouracil]
- IC50 (DLD-1 cells): 2.5 µM
- IC50 (DLD1-DR cells): 211 µM

- EC50 (read off the curve) [4]: ~3 µM
- Kd [5]: 3.2 µM
- tumor CNR increase (MRMI) in the BxPC3-GFP-Luc intrapancreatic model, MT218 co-injected with an excess of free ZD2 peptide [6]: 2.5 fold
- tumor CNR increase (MRMI) in the BxPC3-GFP-Luc intrapancreatic model, MT218 without the free peptide [6]: 4.5 fold
B1: ZD2-N3-Gd(HP-DO3A) (MT218) (peptide)
peptide: TVRTSAD
modifications: also: conjugated to Gd(HP-DO3A) by click reaction of alkynyl-ZD2 with N3-Gd(HP-DO3A), residue of attachment not given here, Gd complex
notes: Small peptide conjugate of the clinical contrast agent gadoteridol; also called EDB-FN-targeted contrast agent; ZD2 targeted MRI contrast agent
